#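 Grown in 96-well plates, cells were treated for 48 hours with each compound at five concentrations. Insufficient inhibition: endpoint recorded as highest concentration tested. Here, GI50 denotes the concentration required for 50% inhibition of growth. TGI: concentration producing complete growth inhibition.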
# Legend:
# Assay in all cases: NCI anticancer screen, dose series, 48 h
# KM12 colon = tested on: KM12 colon
# SF-268 CNS = tested on: SF-268 CNS
# COLO 205 colon = tested on: COLO 205 colon
# SW-620 colon = tested on: SW-620 colon
# HT29 colon = tested on: HT29 colon
# MALME-3M melanoma = tested on: MALME-3M melanoma
# RPMI-8226 leukemia = tested on: RPMI-8226 leukemia
# NCI/ADR-RES ovarian = tested on: NCI/ADR-RES ovarian
# LOX IMVI melanoma = tested on: LOX IMVI melanoma
# SK-MEL-2 melanoma = tested on: SK-MEL-2 melanoma
Structure (SMILES),GI50 (KM12 colon),TGI (KM12 colon),GI50 (SF-268 CNS),TGI (SF-268 CNS),GI50 (COLO 205 colon),TGI (COLO 205 colon),GI50 (SW-620 colon),TGI (SW-620 colon),GI50 (HT29 colon),TGI (HT29 colon),GI50 (MALME-3M melanoma),TGI (MALME-3M melanoma),GI50 (RPMI-8226 leukemia),TGI (RPMI-8226 leukemia),GI50 (NCI/ADR-RES ovarian),TGI (NCI/ADR-RES ovarian),GI50 (LOX IMVI melanoma),TGI (LOX IMVI melanoma),GI50 (SK-MEL-2 melanoma),TGI (SK-MEL-2 melanoma)
COc1ccc(/C=C(/c2ccccc2)[N+](=O)[O-])cc1,1.85 µM,3.5 µM,1.82 µM,3.77 µM,1.79 µM,4.07 µM,1.34 µM,3.18 µM,2.04 µM,11.3 µM,1.42 µM,2.94 µM,0.486 µM,3.01 µM,1.75 µM,4.66 µM,1.47 µM,2.89 µM,1.92 µM,4.44 µM
COc1ccc2c(Oc3ccc(NC(=O)c4c(C)n(CC(C)(C)O)n(-c5ccccc5)c4=O)nc3)ccnc2c1,2.23 µM,> 100 µM,16.8 µM,> 100 µM,> 73.4 µM,> 100 µM,34.2 µM,> 100 µM,21.6 µM,> 91.1 µM,9.06 µM,51.1 µM,10.7 µM,> 79.3 µM,20.5 µM,> 100 µM,10.9 µM,> 100 µM,13.3 µM,49.4 µM
C=C1CC[C@@H](C(C)C)C[C@@H]2[C@H]([C@H](O)C[C@]2(C)O)[C@@]2(C)CC[C@@H]1O2,16.2 µM,32 µM,16.5 µM,30.1 µM,20 µM,34.9 µM,20.6 µM,39.9 µM,11.8 µM,26.5 µM,14.1 µM,28.6 µM,3.38 µM,17.2 µM,16.7 µM,33.2 µM,14.7 µM,27.9 µM,23.2 µM,50.6 µM
CC(C)C1=C2CCC3(C)C(CCC4C5C6OCC5(CCC6(C)C)CCC43C)C2(C)CC1 (stereo not given),,35.2 µM,,69.9 µM,,37.3 µM,,50.8 µM,,37 µM,,38.6 µM,,42.9 µM,,39.6 µM,,28.7 µM,,81.7 µM
CCCCCCCCCCN1CCC(N2CCCCC2)CC1,1.82 µM,3.75 µM,4.1 µM,17 µM,1.3 µM,2.56 µM,1.92 µM,3.97 µM,0.606 µM,4.33 µM,1.97 µM,3.98 µM,1.83 µM,5.21 µM,6.76 µM,20.2 µM,1.23 µM,2.47 µM,2.43 µM,6.29 µM
Cc1nn(C(=O)c2ccc(Cl)cc2)c2c1C(c1ccc(O)cc1)SC(N)=N2 (stereo not given),,> 10 µM,,> 10 µM,,> 10 µM,,> 10 µM,,> 10 µM,,> 10 µM,,> 10 µM,,> 10 µM,,> 10 µM,,> 10 µM

# Source: PubChem BioAssay (NCI)
